The values below come from patent publication US10590140B2, “Tetrahydropyrimidodiazepine and dihydropyridodiazepine compounds for treating pain and pain related conditions” (ESTEVE PHARMACEUTICALS, S.A., priority 2016, dated 2020).

The target in this assay is human α2δ-1 subunit of Cav2.2 calcium channel (Homo sapiens (Human), UniProt P54289). The assay is described as follows: Binding assay to human α2δ-1 subunit of Cav2.2 calcium channel ([3H]-Gabapentin). The note with it: binding to α2δ-1, [3H]-Gabapentin; read-out: Ki (nM) α2δ-1. The gist of the method: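 [3H]-gabapentin binding, 60 min at 27° C; nonspecific binding defined with 10 μM pregabalin. Terminated by filtration on PEI-presoaked GF/C filters, ice-cold 50 mM Tris-HCl pH 7.4 washes, then scintillation counting.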
human α2δ-1 subunit of Cav2.2 calcium channel, sequence (P54289 25-1103): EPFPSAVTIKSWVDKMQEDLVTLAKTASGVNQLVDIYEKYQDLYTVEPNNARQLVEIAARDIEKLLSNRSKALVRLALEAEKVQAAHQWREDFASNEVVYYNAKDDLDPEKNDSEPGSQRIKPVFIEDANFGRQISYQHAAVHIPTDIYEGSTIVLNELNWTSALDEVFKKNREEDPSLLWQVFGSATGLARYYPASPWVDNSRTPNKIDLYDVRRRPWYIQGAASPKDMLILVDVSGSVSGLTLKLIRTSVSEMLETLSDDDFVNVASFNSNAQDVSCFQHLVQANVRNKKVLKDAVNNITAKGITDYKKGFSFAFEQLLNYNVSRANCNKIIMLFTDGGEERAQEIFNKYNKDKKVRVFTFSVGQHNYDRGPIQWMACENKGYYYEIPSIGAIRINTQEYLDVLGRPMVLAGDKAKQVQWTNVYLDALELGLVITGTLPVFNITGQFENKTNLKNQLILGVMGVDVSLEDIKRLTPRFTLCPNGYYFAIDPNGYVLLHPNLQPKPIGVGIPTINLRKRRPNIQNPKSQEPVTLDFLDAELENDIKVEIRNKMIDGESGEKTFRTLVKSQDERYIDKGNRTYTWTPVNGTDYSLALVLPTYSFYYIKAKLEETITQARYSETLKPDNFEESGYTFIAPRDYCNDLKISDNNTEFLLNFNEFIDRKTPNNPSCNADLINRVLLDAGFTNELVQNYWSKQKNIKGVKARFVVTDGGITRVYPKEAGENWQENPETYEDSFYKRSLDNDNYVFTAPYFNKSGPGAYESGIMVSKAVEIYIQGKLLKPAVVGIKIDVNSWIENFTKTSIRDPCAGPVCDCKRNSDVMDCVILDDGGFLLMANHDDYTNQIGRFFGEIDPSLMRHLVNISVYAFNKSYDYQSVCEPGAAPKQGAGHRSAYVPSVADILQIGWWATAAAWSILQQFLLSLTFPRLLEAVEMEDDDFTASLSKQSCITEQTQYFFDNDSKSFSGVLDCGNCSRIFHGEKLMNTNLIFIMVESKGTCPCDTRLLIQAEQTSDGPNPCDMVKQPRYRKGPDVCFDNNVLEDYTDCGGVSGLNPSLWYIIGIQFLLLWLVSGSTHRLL

As for `CN(CCC(OCc1cccc(N2CCN(C)c3nc(O)ncc3C2=O)c1)c1cccs1)C(=O)OC(C)(C)C` (centres unmarked) [Example 141, tert-butyl (3-((3-(2-hydroxy-9-methyl-5-oxo-5,7,8,9-tetrahydro-6H-pyrimido[4,5-e][1,4]diazepin-6-yl)benzyl)oxy)-3-(thiophen-2-yl)propyl)(methyl)carbamate], the Ki is more than 3000 nM.

In the case of `CCNc1ncc2c(n1)N(C)CCN(c1cccc(CO[C@H](CCN(C)C(=O)OC(C)(C)C)c3cccs3)c1)C2=O` [Example 84, tert-butyl (R)-(3-((3-(2-(ethylamino)-9-methyl-5-oxo-5,7,8,9-tetrahydro-6H-pyrimido[4,5-e][1,4]diazepin-6-yl)benzyl)oxy)-3-(thiophen-2-yl)propyl)(methyl) carbamate], the Ki is more than 3000 nM.

Regarding `CSc1ncc2c(n1)N(C)CCN(c1cccc(COC(CN(C)C(=O)OCC[Si](C)(C)C)c3ccccc3)c1)C2=O` (centres unmarked) [Example 19, 2-(trimethyl-silyl)ethyl methyl(2-((3-(9-methyl-2-(methylthio)-5-oxo-5,7,8,9-tetrahydro-6H-pyrimido[4,5-e][1,4]diazepin-6-yl)benzyl)oxy)-2-phenylethyl) carbamate], the inhibition constant Ki is more than 3000 nM.

In the case of `CSc1ncc2c(n1)N(C)CCN(c1cccc(OC(CNC(=O)OC(C)(C)C)c3ccccc3)c1)C2=O` (centres unmarked) [Example 5, tert-butyl (2-(3-(9-methyl-2-(methylthio)-5-oxo-5,7,8,9-tetrahydro-6H-pyrimido[4,5-e][1,4]diazepin-6-yl)phenoxy)-2-phenylethyl) carbamate], the Ki is more than 3000 nM.

Regarding `CCNc1ncc2c(n1)N(C)CCN(c1ccccc1COC(CNC)c1ccccc1)C2=O` (centres unmarked) [Example 339, 2-(ethylamino)-9-methyl-6-(2-((2-(methylamino)-1-phenylethoxy)methyl)phenyl)-6,7,8,9-tetrahydro-5H-pyrimido[4,5-e][1,4]diazepin-5-one], the Ki was more than 3000 nM.

Consider `CN(CCC(Oc1cccc(N2CCN(C)c3ncncc3C2=O)c1)c1cccs1)C(=O)OCC[Si](C)(C)C` (centres unmarked) [Example 147, 2-(trimethylsilyl)ethyl methyl(3-(3-(9-methyl-5-oxo-5,7,8,9-tetrahydro-6H-pyrimido[4,5-e][1,4]diazepin-6-yl)phenoxy)-3-(thiophen-2-yl)propyl)carbamate], for which the inhibition constant (Ki) is more than 3000 nM.

With `CCNc1cc2c(cn1)C(=O)N(c1cccc(-c3nnc(C)n3CC)c1)CCN2C` [Example 55, 4-(3-(4-ethyl-5-methyl-4H-1,2,4-triazol-3-yl)phenyl)-8-(ethylamino)-1-methyl-1,2,3,4-tetrahydro-5H-pyrido[4,3-e][1,4]diazepin-5-one], the Ki lay within 500 to 3000 nM.

On to `CSc1ncc2c(n1)N(C)CCN(c1cccc(OC(CN(C)C(=O)OC(C)(C)C)C(C)C)c1)C2=O` (centres unmarked) [Example 7, tert-butyl methyl(3-methyl-2-(3-(9-methyl-2-(methylthio)-5-oxo-5,7,8,9-tetrahydro-6H-pyrimido[4,5-e][1,4]diazepin-6-yl)phenoxy)butyl) carbamate], for which the inhibitory constant (Ki) is more than 3000 nM.

For the molecule `CSc1ncc2c(n1)N(C)CCN(c1cccc(-c3noc(C)n3)c1)C2=O` [Example 31, 9-methyl-6-(3-(5-methyl-1,2,4-oxadiazol-3-yl)phenyl)-2-(methylthio)-6,7,8,9-tetrahydro-5H-pyrimido[4,5-e][1,4]diazepin-5-one], the inhibitory constant (Ki) was more than 3000 nM.

Consider `CNCCC(OCc1ccccc1CN1CCN(C)c2nc(SC)ncc2C1=O)c1ccccc1` (centres unmarked) [Example 365, 9-methyl-6-(2-((3-(methylamino)-1-phenylpropoxy)methyl)benzyl)-2-(methylthio)-6,7,8,9-tetrahydro-5H-pyrimido[4,5-e][1,4]diazepin-5-one], for which the Ki is more than 3000 nM.

For the molecule `CSc1ncc2c(n1)N(C)CCN(c1cccc(CO[C@@H](CCN(C)C(=O)OC(C)(C)C)c3ccccc3)c1)C2=O` [Example 11, tert-butyl (S)-methyl(3-((3-(9-methyl-2-(methylthio)-5-oxo-5,7,8,9-tetrahydro-6H-pyrimido[4,5-e][1,4]diazepin-6-yl)benzyl)oxy)-3-phenylpropyl) carbamate], the Ki is more than 3000 nM.

For the molecule `CCNc1ncc2c(n1)N(C)CCN(c1cccc(CN3CCC(c4ccccc4)(N(C)C)CC3)c1)C2=O` [Example 292, 6-(3-((4-(dimethylamino)-4-phenylpiperidin-1-yl)methyl)phenyl)-2-(ethylamino)-9-methyl-6,7,8,9-tetrahydro-5H-pyrimido[4,5-e] [1,4]diazepin-5-one], the Ki lay within 500 to 3000 nM.

For the molecule `CCNc1ncc2c(n1)N(C)CCN(c1cccc(OC(C)CN(C)Cc3ccccc3)c1)C2=O` (centres unmarked) [Example 262, 6-(3-((1-(benzyl(methyl)amino)propan-2-yl)oxy)phenyl)-2-(ethylamino)-9-methyl-6,7,8,9-tetrahydro-5H-pyrimido[4,5-e][1,4]diazepin-5-one], the Ki lay within 500 to 3000 nM.

Consider `CNCCC(Oc1ccc(CN2CCN(C)c3nc(OC)ncc3C2=O)cc1)c1nccs1` (centres unmarked) [Example 390, 2-methoxy-9-methyl-6-(4-(3-(methylamino)-1-(thiazol-2-yl)propoxy)benzyl)-6,7,8,9-tetrahydro-5H-pyrimido[4,5-e][1,4]diazepin-5-one], for which the Ki was 100 to 500 nM.

As to `CCNc1ncc2c(n1)N(C)CCN(c1cccc(OC(CN(C)Cc3ccccc3)C(C)C)c1)C2=O` (centres unmarked) [Example 267, 6-(3-((1-(benzyl(methyl)amino)-3-methylbutan-2-yl)oxy)phenyl)-2-(ethylamino)-9-methyl-6,7,8,9-tetrahydro-5H-pyrimido[4,5-e][1,4]diazepin-5-one], the Ki fell in the range of 500 to 3000 nM.

With `CSc1ncc2c(n1)N(C)CCN(c1cccc(Cn3cc(CN(C)C(=O)OC(C)(C)C)nn3)c1)C2=O` [Example 44, tert-butyl methyl((1-(3-(9-methyl-2-(methylthio)-5-oxo-5,7,8,9-tetrahydro-6H-pyrimido[4,5-e][1,4]diazepin-6-yl)benzyl)-1H-1,2,3-triazol-4-yl)methyl) carbamate], the inhibition constant (Ki) is more than 3000 nM.

Turning to `CN(CC[C@H](Oc1ccc(CN2CCN(C)c3cc(Cl)ncc3C2=O)cc1)c1cccs1)C(=O)OCC[Si](C)(C)C` [Example 299, 2-(trimethylsilyl)ethyl (S)-(3-(4-((8-chloro-1-methyl-5-oxo-1,2,3,5-tetrahydro-4H-pyrido[4,3-e][1,4]diazepin-4-yl)methyl)phenoxy)-3-(thiophen-2-yl)propyl)(methyl) carbamate], the Ki is more than 3000 nM.

`CCNc1ncc2c(n1)N(C)CCN(c1cccc(-n3cc(CN4CCC(c5ccccc5)(N(C)C)CC4)nn3)c1)C2=O` [Example 291, 6-(3-(4-((4-(dimethylamino)-4-phenylpiperidin-1-yl)methyl)-1H-1,2,3-triazol-1-yl)phenyl)-2-(ethylamino)-9-methyl-6,7,8,9-tetrahydro-5H-pyrimido[4,5-e] [1,4]diazepin-5-one]: the Ki is 100 to 500 nM.

For `CNCC[C@H](Oc1ccc(CN2CCN(C)c3c(Cl)cncc3C2=O)cc1)c1cccs1` [Example 400, (S)-9-chloro-1-methyl-4-(4-(3-(methylamino)-1-(thiophen-2-yl)propoxy)benzyl)-1,2,3,4-tetrahydro-5H-pyrido[4,3-e][1,4]diazepin-5-one], the Ki lay within 500 to 3000 nM.

For the molecule `CCNc1ncc2c(n1)N(C)CCN(c1cccc(C3=CCN(C(=O)OC(C)(C)C)CC3)c1)C2=O` [Example 233, tert-Butyl 4-(3-(2-(ethylamino)-9-methyl-5-oxo-5,7,8,9-tetrahydro-6H-pyrimido[4,5-e][1,4]diazepin-6-yl)phenyl)-3,6-dihydropyridine-1(2H)-carboxylate], the inhibitory constant (Ki) is more than 3000 nM.

Turning to `CCNc1ncc2c(n1)N(C)CCN(c1cccc(-n3cc(CN(CC4CC4)CC4CC4)nn3)c1)C2=O` [Example 245, 6-(3-(4-((bis (cyclopropylmethyl)amino)methyl)-1H-1,2,3-triazol-1-yl)phenyl)-2-(ethylamino)-9-methyl-6,7,8,9-tetrahydro-5H-pyrimido[4,5-e][1,4]diazepin-5-one], the Ki lay in the range of 500 to 3000 nM.

On to `COc1ncc2c(n1)N(C)CCN(c1cccc(CO[C@H](CCN(C)C(=O)OC(C)(C)C)c3ccccc3)c1)C2=O` [Example 138, tert-Butyl (R)-(3-((3-(2-methoxy-9-methyl-5-oxo-5,7,8,9-tetrahydro-6H-pyrimido[4,5-e][1,4]diazepin-6-yl)benzyl)oxy)-3-phenylpropyl)(methyl)carbamate], for which the Ki was more than 3000 nM.

Turning to `CSc1ncc2c(n1)N(C)CCN(c1ccccc1OC(CCN(C)C(=O)OC(C)(C)C)c1ccccc1)C2=O` (centres unmarked) [Example 48, tert-butyl methyl(3-(2-(9-methyl-2-(methylthio)-5-oxo-5,7,8,9-tetrahydro-6H-pyrimido [4,5-e][1,4]diazepin-6-yl)phenoxy)-3-phenylpropyl) carbamate], the inhibition constant Ki is more than 3000 nM.

`CCNc1ncc2c(n1)N(C)CCN(c1cccc(COC3(c4ccccc4)CCN(C(=O)OC(C)(C)C)CC3)c1)C2=O` [Example 96, tert-butyl 4-((3-(2-(ethylamino)-9-methyl-5-oxo-5,7,8,9-tetrahydro-6H-pyrimido[4,5-e][1,4]diazepin-6-yl)benzyl)oxy)-4-phenylpiperidine-1-carboxylate]: the Ki was more than 3000 nM.

Consider `CNCC[C@H](Oc1ccc(CN2CCN(C)c3nc(OC)ncc3C2=O)cc1C)c1cccs1` [Example 393, (S)-2-methoxy-9-methyl-6-(3-methyl-4-(3-(methylamino)-1-(thiophen-2-yl)propoxy)benzyl)-6,7,8,9-tetrahydro-5H-pyrimido[4,5-e][1,4]diazepin-5-one], for which the Ki lay in the range of 100 to 500 nM.

For the molecule `CCNc1ncc2c(n1)N(C)CCN(c1cccc(C(=O)N3CCC(c4ccccc4)(N(C)C)CC3)c1)C2=O` [Example 314, 6-(3-(4-(dimethylamino)-4-phenylpiperidine-1-carbonyl)phenyl)-2-(ethylamino)-9-methyl-6,7,8,9-tetrahydro-5H-pyrimido[4,5-e][1,4]diazepin-5-one], the Ki was more than 3000 nM.

The term Ki denotes the dissociation constant of the complex between target and ligand, obtained from inhibition or displacement.
